Data taken from US12344631B2, “C17 polar-substituted heteroaromatic synthetic triterpenoids and methods of use thereof” (REATA PHARMACEUTICALS, INC., priority 2019, dated 2025).

Columns and labels:
[1] = target: CYP3A4 (Homo sapiens, UniProt P08684); test: CYP3A4 (midazolam) inhibition in human liver microsomes; details: for CYP3A4 (Midazolam) % Inhibition: historical data performed under comparable conditions; for CYP3A4 (Midazolam) % Inhibition / CYP3A4 inhibition lower than the corresponding unsubstituted compound: 1 μM; for CYP3A4 (Midazolam) % Inhibition / inhibition at 10 min, 1 μM: human liver microsomes; for CYP3A4 inhibition compared with historical data for RTA 402 and RTA 408: comparable conditions (FIG. 1); for inhibition at 10 min, 1 μM: human, probe midazolam (5 μM); for CYP3A4 inhibition lower than the corresponding unsubstituted compound: vs CC2, CC1 or CC3
[2] = test system: AML-12 hepatocyte cell line; test: Glutathione assay (total glutathione, GSH-Glo); format: cell-based, mouse; details: for EC50: Mus musculus, AML12, AML-12 cells, 24 hours, total glutathione, read-out: GSH EC50 (nM) (Mean ± SD); for GSH EC50 Relative to RTA 402 (fold) (Mean ± SD): benchmark RTA 402
Method: The effect of compound treatment on total glutathione levels was evaluated in the mouse AML-12 hepatocyte cell line. Glutathione—a tripeptide consisting of cysteine, glutamate, and glycine—is the major thiol-containing protein within the cell and regulates cellular redox balance. Glutathione also plays important roles in detoxification, protein glutathionylation, and iron-sulfur cluster biogenesis (Bachhawat and Yadav, 2018). Nrf2 regulates the expression of many genes involved in glutathione synthesis and metabolism, including both subunits of glutamate cysteine ligase (GCL), the enzyme that catalyzes the rate limiting step of glutathione biosynthesis (Thimmulappa et al., 2002). […] The next day, cells were treated with vehicle (DMSO) or test compound (0.03 nM to 1000 nM). Each well received a final concentration of 0.1% DMSO. Cells were incubated at 37° C., 5% CO2 for 24 hours. Total glutathione concentrations were measured using the GSH-Glo Glutathione Assay kit (Promega) according to the manufacturer's instructions. Briefly, a standard curve was prepared by serially diluting the provided glutathione solution. […] After a 30-minute incubation at room temperature, 100 μL of Luciferin detection reagent was added to all sample and standard wells and incubated for 15 minutes. Luminescence was measured using a PHERAstar plate reader. The EC50 value was determined using Excel and GraphPad Prism software. The basal concentration of glutathione was set to 0% and the highest concentration of glutathione produced following treatment with a test compound was set to 100% and a dose-response curve was generated. The dose-response curve was fit using nonlinear regression analysis and used to extrapolate the EC50 value.

[3] = test system: AREc32 reporter cell line (antioxidant response element of rat Gsta2, Nrf2 target gene); test: AREc32 luciferase reporter activation; format: cell-based, human; details: for AREc32 EC2X Relative to RTA 402 (fold) (Mean ± SD): average of ratios from replicate experiments, benchmark RTA 402; for AREc32 Relative to CC in Same Experiment (Mean ± SD): average of ratios from experiments with direct comparisons; for EC (2-fold): human, Arec32, 19 h, concentration increasing luminescence signal 2-fold above vehicle, nineteen hours, read-out: AREc32 EC2X (nM) (Mean ± SD)
Method: […] The effect of several compounds disclosed herein on luciferase reporter activation was assessed in the AREc32 reporter cell line (see Table 10 and Table 11). This cell line is derived from human breast carcinoma MCF-7 cells and is stably transfected with a luciferase reporter gene under the transcriptional control of eight copies of the antioxidant response element from the rat Gsta2 gene, an Nrf2 target gene ([…] et al., 1990). […] Twenty-four hours after plating, cells were treated with vehicle (DMSO) or test compounds at concentrations ranging from 0.03 to 1000 nM for nineteen hours. Media was removed and 100 μL of 1:1 mixture of the One-Glo Luciferase assay reagent and culture medium was added to each well. After incubation for 5 min at room temperature, the luminescence signal was measured on a PHERAstar plate reader. The EC2X value was determined using Excel and GraphPad Prism software. The fold increase in luminescence signal for cells treated with each concentration of compound relative to cells treated with vehicle was determined and a dose-response curve was generated. The dose-response curve was fit using nonlinear regression analysis and used to extrapolate the EC2X value.

[4] = test system: RAW 264.7 cells; test: Nitric oxide suppression assay (IFNγ-induced NO production); format: cell-based, mouse; details: for IC50: Mus musculus, RAW264.7, RAW 264.7 cells, 2 h pretreatment, 20 ng/mL interferon gamma 24 h, nitrite by Griess, read-out: NO IC50 (nM) (Mean ± SD); for NO IC50 Relative to RTA 402 (fold) (Mean ± SD): average of ratios from replicate experiments, benchmark RTA 402
Method: Tissue Culture. RAW 264.7, a mouse macrophage cell line, was obtained from American Type Culture Collection (Manassas VA) and maintained in the log phase of growth in Roswell Park Memorial Institute Medium 1640 (RPMI 1640) supplemented with 10% heat inactivated fetal bovine serum (FBS) and 1% penicillin-streptomycin. Cells were cultured and maintained in a humidified incubator at 37° C. under 5% CO2. Cells were sub-cultured every 3 days. […] All cell culture supplies were obtained from Life Technologies (Grand Island, NY) and VWR (Radnor, PA). Nitric Oxide Suppression Assay. RAW 264.7 cells were plated 1 day in advance of experimental treatments at a concentration of 30,000 cells per well onto Falcon-96 well clear bottom plates (Corning, NY) in a total volume of 200 μL per well using RPMI 1640 supplemented with 0.5% fetal bovine serum and 1% penicillin-streptomycin. The next day, cells were pretreated with compounds serially diluted from 1000× stocks. All compounds were dissolved in dimethyl sulfoxide (DMSO) at 10 mM stock solutions. Compounds were subsequently diluted in DMSO and RPMI 1640. Each well received a final concentration of 0.1% DMSO. Cells were pretreated for 2 hours and incubation at 37° C., followed by treatment with 20 ng/mL of interferon gamma (R&D Systems, Minneapolis, MN) per well for 24 hours. […] Afterwards, 50 μL of cell culture supernatant was transferred from each well into a new Falcon-96 well clear bottom plate. […] Afterwards, air bubbles were removed using ethanol vapor and absorbance was measured using a Spectramax M2e plate reader with a wavelength set to 525 nm. Viability was assessed using WST-1 cell proliferation reagent from Roche (Basel, Switzerland). After media was removed for the Nitric Oxide suppression assay, 15 μL of WST-1 reagent was added to each well of cells. Plates were briefly mixed on an orbital shaker and the cells were incubated at 37° C. for 30 minutes. Absorbance was measured using a Spectramax M2e plate reader with wavelengths set to 440 nm and 700 nm. For the ability of compounds to suppress the increase in nitric oxide release caused by interferon gamma, the absolute amount of nitrite that was produced in each well was extrapolated from the nitrite standards using a linear regression fit. All values were then normalized to the DMSO-interferon gamma treated wells and plotted as percent nitric oxide. IC50 values were calculated with a dependence on WST1 viability using Excel and/or GraphPad Prism (San Diego, CA).

CYP3A4, sequence (P08684 whole entry): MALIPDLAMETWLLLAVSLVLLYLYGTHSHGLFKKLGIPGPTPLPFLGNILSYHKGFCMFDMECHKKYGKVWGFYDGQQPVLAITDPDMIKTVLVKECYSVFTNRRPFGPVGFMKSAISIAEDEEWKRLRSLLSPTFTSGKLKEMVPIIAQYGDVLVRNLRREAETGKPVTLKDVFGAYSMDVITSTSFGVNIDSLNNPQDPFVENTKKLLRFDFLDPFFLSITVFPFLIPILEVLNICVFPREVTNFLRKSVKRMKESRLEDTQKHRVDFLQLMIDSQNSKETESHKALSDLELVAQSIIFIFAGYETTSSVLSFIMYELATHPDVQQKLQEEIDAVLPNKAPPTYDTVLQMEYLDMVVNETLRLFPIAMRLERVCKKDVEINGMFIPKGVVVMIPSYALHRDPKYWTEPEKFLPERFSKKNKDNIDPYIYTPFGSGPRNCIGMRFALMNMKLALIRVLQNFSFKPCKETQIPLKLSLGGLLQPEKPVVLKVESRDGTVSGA

Row | SMILES | CYP3A4 (Midazolam) % Inhibition [1] | EC50 [2] | GSH EC50 Relative to RTA 402 (fold) (Mean ± SD) [2] | AREc32 EC2X Relative to RTA 402 (fold) (Mean ± SD) [3] | AREc32 Relative to CC in Same Experiment (Mean ± SD) ([3]; comparison compound CC2) | EC (2-fold) [3] | CYP3A4 inhibition compared with historical data for RTA 402 and RTA 408 [1] | inhibition at 10 min, 1 μM [1] | CYP3A4 inhibition lower than the corresponding unsubstituted compound [1] | IC50 [4] | NO IC50 Relative to RTA 402 (fold) (Mean ± SD) [4] | AREc32 Relative to CC in Same Experiment (Mean ± SD) ([3]; comparison compound CC1) | AREc32 Relative to CC in Same Experiment (Mean ± SD) ([3]; comparison compound CC3)
1 | COC(=O)[C@]12CCC(C)(C)C[C@H]1[C@H]1C(=O)C=C3[C@@]4(C)C=C(C#N)C(=O)C(C)(C)[C@@H]4CC[C@@]3(C)[C@]1(C)CC2 [RTA 402, Bardoxolone methyl, reference compound] | 48.4% | – | – | – | – | – | – | – | – | – | – | – | –
2 | CC1(C)CC[C@]2(c3noc(CF)n3)CC[C@]3(C)[C@H](C(=O)C=C4[C@@]5(C)C=C(C#N)C(=O)C(C)(C)[C@@H]5CC[C@]43C)[C@@H]2C1 [Compound T1] | – | 0.57 ± 0.22 nM | 0.35 ± 0.12 fold | 0.46 ± 0.13 fold | 0.62 ± 0.07 | 6.2 ± 1.37 nM | reduced CYP3A4 inhibition | 29.1% | 36% | 1.24 nM | 0.52 ± 0.12 fold | – | –
3 | CC1(C)CC[C@]2(c3nc(CF)no3)CC[C@]3(C)[C@H](C(=O)C=C4[C@@]5(C)C=C(C#N)C(=O)C(C)(C)[C@@H]5CC[C@]43C)[C@@H]2C1 [Compound T12] | – | 0.82 ± 0.4 nM | 0.50 ± 0.19 fold | 0.53 ± 0.12 fold | 0.75 ± 0.05 | 6.87 ± 1.57 nM | reduced CYP3A4 inhibition | 29.7% | 35% | 1.27 nM | 0.52 ± 0.12 fold | – | –
4 | CC1(C)CC[C@]2(NC(=O)C(C)(F)F)CC[C@]3(C)[C@H](C(=O)C=C4[C@@]5(C)C=C(C#N)C(=O)C(C)(C)[C@@H]5CC[C@]43C)[C@@H]2C1 [RTA 408, omaveloxolone, reference compound] | 56.6% | – | – | – | – | – | – | – | – | – | – | – | –
5 | CC1(C)CC[C@]2(c3nnc(C(F)(F)F)o3)CC[C@]3(C)[C@H](C(=O)C=C4[C@@]5(C)C=C(C#N)C(=O)C(C)(C)[C@@H]5CC[C@]43C)[C@@H]2C1 [Compound T45] | – | 8 ± 1.37 nM | 4.14 ± 0.35 fold | 1.95 ± 0.57 fold | – | 29.1 ± 2.09 nM | – | – | – | 12.9 ± 6.38 nM | 3.81 ± 0.34 fold | – | –
6 | CCc1nc([C@]23CCC(C)(C)C[C@H]2[C@H]2C(=O)C=C4[C@@]5(C)C=C(C#N)C(=O)C(C)(C)[C@@H]5CC[C@@]4(C)[C@]2(C)CC3)no1 [Compound T24] | – | 6.11 ± 2.23 nM | 2.53 ± 0.52 fold | 2.50 ± 0.66 fold | – | 32.2 ± 2.59 nM | – | – | – | 9.21 nM | 2.56 ± 0.62 fold | – | –
7 | CC1(C)CC[C@]2(c3nc(C(F)(F)F)no3)CC[C@]3(C)[C@H](C(=O)C=C4[C@@]5(C)C=C(C#N)C(=O)C(C)(C)[C@@H]5CC[C@]43C)[C@@H]2C1 [Compound T22] | – | 17.6 ± 0.59 nM | 8.72 ± 1.98 fold | 3.45 ± 0.69 fold | – | 54.6 ± 8.83 nM | – | – | – | 23.9 nM | 7.71 ± 2.33 fold | – | –
8 | C[C@@H]1C(=O)C(C#N)=C[C@]2(C)C3=CC(=O)[C@@H]4[C@@H]5CC(C)(C)CC[C@]5(c5nc(C(F)(F)F)no5)CC[C@@]4(C)[C@]3(C)CC[C@@H]12 [Compound T36] | – | 10.4 ± 1.62 nM | 5.40 ± 0.54 fold | 2.25 ± 0.31 fold | – | 33.7 ± 6.99 nM | – | – | – | 17.8 ± 9.89 nM | 3.95 ± 0.84 fold | – | –
9 | CC1(C)CC[C@]2(c3nnn(CCF)n3)CC[C@]3(C)[C@H](C(=O)C=C4[C@@]5(C)C=C(C#N)C(=O)C(C)(C)[C@@H]5CC[C@]43C)[C@@H]2C1 [Compound T10] | – | 1.45 ± 0.17 nM | 1.14 ± 0.03 fold | 2.41 ± 0.98 fold | – | 28.4 ± 9.42 nM | – | – | – | 2.2 ± 0.2 nM | 1.62 ± 0.16 fold | – | –
10 | CC1(C)CC[C@]2(c3noc(C(F)F)n3)CC[C@]3(C)[C@H](C(=O)C=C4[C@@]5(C)C=C(C#N)C(=O)C(C)(C)[C@@H]5CC[C@]43C)[C@@H]2C1 [Compound T41] | – | 4.85 ± 0.36 nM | 2.38 ± 0.29 fold | 1.52 ± 0.19 fold | – | 24.2 ± 3.36 nM | – | – | – | 9.84 ± 3.52 nM | 2.79 ± 0.64 fold | – | –
11 | CC1(C)CC[C@]2(c3nnc(C(F)F)o3)CC[C@]3(C)[C@H](C(=O)C=C4[C@@]5(C)C=C(C#N)C(=O)C(C)(C)[C@@H]5CC[C@]43C)[C@@H]2C1 [Compound T44] | – | 2.05 ± 0.64 nM | 1.04 ± 0.06 fold | 0.57 ± 0.12 fold | – | 8.62 ± 0.45 nM | – | – | – | 4.24 ± 2.23 nM | 1.24 ± 0.04 fold | 0.91 ± 0.21 | –
12 | CCc1noc([C@]23CCC(C)(C)C[C@H]2[C@H]2C(=O)C=C4[C@@]5(C)C=C(C#N)C(=O)[C@@H](C)[C@@H]5CC[C@@]4(C)[C@]2(C)CC3)n1 [Compound T37] | – | 1.69 ± 0.19 nM | 0.88 ± 0.13 fold | 0.69 ± 0.06 fold | – | 10.3 ± 1.35 nM | – | – | – | 3.45 ± 1.87 nM | 0.76 ± 0.12 fold | – | 1.58 ± 0.16
13 | CC1(C)CC[C@]2(c3nc(CCN)no3)CC[C@]3(C)[C@H](C(=O)C=C4[C@@]5(C)C=C(C#N)C(=O)C(C)(C)[C@@H]5CC[C@]43C)[C@@H]2C1 [Compound T16] | – | 0.58 ± 0.04 nM | 0.46 ± 0.09 fold | 0.30 ± 0.00 fold | – | 3.56 ± 0.31 nM | – | – | – | 1.26 ± 0.12 nM | 0.94 ± 0.19 fold | – | –
